In US20240287110A1, “PHOSPHATE OF TRIFLUOROMETHYL-SUBSTITUTED SULFONAMIDE COMPOUND” (CHIA TAI TIANQING PHARMACEUTICAL GROUP CO., LTD., priority 2021, published 2024):
Converted amounts (≈) assume the structure as drawn.

Assays:
BCL-2/BAK = molecular target: T1, BCL-2/BAK (Homo sapiens, UniProt P10415); test: Screening on inhibitory activity for BCL-2/BAK binding (Cisbio HTRF kit); details: Tag1-BCL-2 / Tag2-BAK binding, 25° C.
T1 construct: purchased Cisbio 63ADK000CB01PEH
Procedure: A 500 nM Tag1-BCL-2 protein stock solution and a 20 μM Tag2-BAK protein stock solution were diluted to 5 nM and 120 nM respectively with a dilution buffer in a kit (manufacturer: Cisbio, Cat. No.: 63ADK000CB01PEH). […] of Tag1-BCL-2 protein diluent was added to each well, and then different compounds dissolved in DMSO were added to the wells using a nanoliter pipettor, allowing the final compound concentrations to be 200 nM to 0.0488 nM (4-fold gradient for 7 concentrations in total). Blank control wells (without enzyme) and negative control wells (with enzyme, plus vehicle DMSO) were set, and 2 replicate wells were set. Finally, 5 μL of Tag2-BAK protein diluent was added to each well, and the mixture was mixed well by centrifugation and incubated at 25° C. for 15 min. 100× anti-Tag1-Eu^3+ and 100× anti-Tag2-XL665 were both diluted to 1× working concentration with a detection buffer in the kit. Anti-Tag1-Eu^3+ and anti-Tag2-XL665 were mixed well in a 1:1 ratio, and 5 μL of the mixture was added to each well. The resulting mixture was incubated at 25° C. for 2 h or more. The plate was read using a PE Envision multi-functional microplate reader (excitation: 620 nm, emission: 665 nm), and IC50 (shown in Table 1) was calculated by four-parameter fitting.

BCL-XL/BAK = molecular target: T2, BCL-XL/BAK (Homo sapiens, UniProt Q07817); test: Screening on inhibitory activity for BCL-XL/BAK binding (Cisbio HTRF kit); details: Tag1-BCL-XL / Tag2-BAK binding, 25° C.
T2 construct: purchased Cisbio 63ADK000CB04PEH
Procedure: A 300 nM Tag1-BCL-XL protein stock solution and a 10 μM Tag2-BAK protein stock solution were diluted to 2 nM and 80 nM respectively with a dilution buffer in a kit (manufacturer: Cisbio, Cat. No.: 63ADK000CB04PEH). 5 μL of Tag1-BCL-XL protein diluent was added to each well, and then different compounds dissolved in DMSO were added to the wells using a nanoliter pipettor, allowing the final compound concentrations to be 2000 nM to 0.488 nM (4-fold gradient for 7 concentrations in total). Blank control wells (without enzyme) and negative control wells (with enzyme, plus vehicle DMSO) were set, and 2 replicate wells were set. Finally, 5 μL of Tag2-BAK protein diluent was added to each well, and the mixture was mixed well by centrifugation and incubated at 25° C. for 15 min. 100× anti-Tag1-Eu^3+ and 100× anti-Tag2-XL665 were both diluted to 1× working concentration with a detection buffer in the kit. Anti-Tag1-Eu^3+ and anti-Tag2-XL665 were mixed well in a 1:1 ratio, and 5 μL of the mixture was added to each well. The resulting mixture was incubated at 25° C. for 2 h or more. The plate was read using a PE Envision multi-functional microplate reader (excitation: 620 nm, emission: 665 nm), and IC50 (shown in Table 1) was calculated by four-parameter fitting.

RS4; 11 cells = test: Inhibitory effect on proliferation of RS4; 11 cells (CCK-8); assay type: cell-based; details: Homo sapiens, 72 h, CCK-8, 5% serum
Procedure: RS4; 11 cells in logarithmic growth phase and good cell condition were added to a centrifuge tube and centrifuged at 1500 rpm for 3 min in a low speed centrifuge. The supernatant was discarded, and 5 mL of complete medium (RPMI basic medium+10% FBS) was added using a pipette for cell resuspension. The cells were counted using a cell counter and diluted with complete medium to a cell density of 2×10^5 cells/mL, and then an equivalent amount of RPMI basic medium was added to adjust the serum concentration to 5% and the cell density to 1×10^5 cells/mL for plate seeding. The cells were seeded on a 96-well plate at […] using a multi-channel pipette and cultured in a cell incubator at 37° C., 5% CO2 with saturated humidity. After 24 h of incubation, compounds (500-0.1 nM) were loaded using a nanoliter pipettor, 2 replicate wells were set for each concentration, and cells without compound were used as negative controls. After 72 h, CCK-8 was added at 10 μL/well for incubation for 4 h, then absorbance was measured at 450 nm with an Envision plate reader, and inhibition rate was calculated. […] A dose-response curve was fitted by four-parameter analysis, with the logarithm of compound concentration as abscissa and inhibition rate as ordinate, so that IC50 was calculated (see Table 2).

[1] = Determination of solubility in water at pH 7.4; assay type: physicochemical; details: aqueous phosphate medium, aqueous buffer, thermodynamic from solid; pH 7.4, 25° C.
Procedure: Reagents used were 0.2 M NaOH (SinoPharm lot No. 20180223) and 0.2 M phosphate (SinoPharm 20180910, pH 7.4). Instruments/equipment used included a balance (HPLC Dionex U3000, Mettler XPE105DR), pipettes (TIANBO 0.5 mL and 0.1 mL), a thermostatic CNC shaker (ZWY-240, set at 25° C. and 200 rpm).
The example compounds were tested in an aqueous medium at 25° C. An excess of each example compound was weighed out and mixed with an aliquot of the target medium in a clear glass vial. The vial was sealed with a cap and then shaken in the shaker at 25° C. as appropriate. When equilibration was completed, the sample was removed from the shaker and the final pH was measured. The suspension was filtered through a 13 mm needle-type filter and a 0.22 m Syring Filter needle-type filter (hydrophilic PTFE-SA membrane, lot No. HKS13SATQ2B). Each filter was used for only one sample. The determination was carried out after the filtrate had been suitably diluted with the same solvent as used for the stock solution. The concentration of the sample was calculated based on a calibration curve of the compound.

T1 sequence (P10415 whole entry, species assumed): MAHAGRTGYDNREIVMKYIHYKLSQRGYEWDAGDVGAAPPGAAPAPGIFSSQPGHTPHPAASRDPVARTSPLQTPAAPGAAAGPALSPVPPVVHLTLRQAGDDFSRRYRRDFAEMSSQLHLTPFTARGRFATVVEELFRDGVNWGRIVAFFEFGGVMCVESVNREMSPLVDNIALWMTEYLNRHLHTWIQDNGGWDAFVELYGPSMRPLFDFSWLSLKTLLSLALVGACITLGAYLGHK
T2 sequence (Q07817 whole entry, species assumed): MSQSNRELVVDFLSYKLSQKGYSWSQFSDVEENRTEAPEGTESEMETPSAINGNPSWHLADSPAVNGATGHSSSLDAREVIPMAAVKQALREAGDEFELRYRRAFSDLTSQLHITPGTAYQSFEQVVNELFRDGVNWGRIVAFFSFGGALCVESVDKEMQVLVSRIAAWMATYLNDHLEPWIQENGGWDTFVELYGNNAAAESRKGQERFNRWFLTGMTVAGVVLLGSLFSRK

| Structure (SMILES) | IC50 (BCL-2/BAK) [nM] | IC50 (BCL-XL/BAK) [nM] | IC50 (RS4; 11 cells) [nM] | solubility [1] [mg/mL] |
| --- | --- | --- | --- | --- |
| CC1(C)CCC(CN2CCN(c3ccc(C(=O)NS(=O)(=O)c4ccc(NC[C@H]5COCCO5)c([N+](=O)[O-])c4)c(Oc4cc5ccnc-5n(COP(=O)(O)O)c4)c3)CC2)=C(c2ccc(C(F)(F)F)cc2Cl)C1 [Example 1] | 3 | 328 | 15.9 | 19.4 (≈ 18.5 mM) |
| Cc1cc(C(F)(F)F)ccc1C1=C(CN2CCN(c3ccc(C(=O)NS(=O)(=O)c4ccc(NC[C@H]5COCCO5)c([N+](=O)[O-])c4)c(Oc4cc5ccnc-5n(COP(=O)(O)O)c4)c3)CC2)CCC(C)(C)C1 [Example 2] | 2.9 | 251 | 14.8 | 2.23 (≈ 2.17 mM) |
